{"source": "patent US20240342141A1", "about": "“Method for Treating or Preventing Diabetic Nephropathy” (Japan Tobacco Inc., priority 2015, published 2024)", "key": {"[1]": {"tested_on": "prolyl hydroxylase (PHD)", "settings": "as described in Patent Document 1 (WO 2011/007856); cited from earlier work"}, "[2]": {"tested_on": "SHR/NDmcr-cp rat model of diabetic nephropathy", "test": "Suppressive effect on tubulointerstitial fibrosis in a rat model of diabetic nephropathy (sirius red staining)", "type": "in vivo", "settings": "male SHR/NDmcr-cp rats, Compound A 0.01% diet from 12 to 40 weeks of age (28 weeks), kidney sections; FIG. 1", "procedure": "Experiment 1. […] Male […] (Japan SLC, Inc.) was used as an experiment animal, and male WKY/Izm rat was used as a normal control (WKY group). The above-mentioned two types of rats were purchased at 6 weeks of age. After confirming that […] have hyperglycemia, hypertension, and hyperlipidemia; Compound A (0.01% diet) and vehicle (powdered diet) were administered to Compound A Group and Vehicle Group respectively from 12 weeks of age to 40 weeks of age. At 40 weeks of age, the rats were exsanguinated under isoflurane anesthesia, kidney was collected and fixed in 10% neutral buffered formalin, and then paraffin-embedded section was prepared. After deparaffinization, the section was stained with an iron hematoxylin solution for 8 minutes and then with a sirius red solution for 1 hour. The iron hematoxylin solution was prepared at the time of use by mixing equal volume of Solution 1 (dissolving 1 g hematoxylin in 100 mL ethanol) and Solution 2 (dissolving 2 g ferric chloride (FeCl3·6H2O) and 1 mL of 25% hydrochloric acid in 95 mL distilled water). […] An image of the sirius red-stained section was captured with HS All-in-One Fluorescence Microscope (BZ-9000, KEYENCE CORPORATION), and the ratio (%) of sirius red-stained area relative to the whole kidney area was measured by a built-in image analysis function."}, "[3]": {"tested_on": "SD rat model of renal ischemia-reperfusion injury", "test": "Suppressive effect on tubulointerstitial fibrosis in a rat model of renal ischemia-reperfusion injury (sirius red staining)", "type": "in vivo", "settings": "male SD rats, oral once daily for 6 days starting 3 days before ischemia-reperfusion injury, 0.2 or 2 mg/mL at 5 mL/kg; kidney 4 weeks after injury; FIG. 3", "procedure": "Experiment 2. […] Male SD rat at 6 weeks of age (CHARLES RIVER LABORATORIES JAPAN, INC.) was used as an experiment animal. 0.5% (w/v) Methylcellulose (MC) was orally administered to Vehicle Group and Sham Group, and 0.2 mg/mL or 2 mg/mL Compound A suspended in 0.5% (w/v) methylcellulose (MC) was orally administered to Compound A Group at a dose of 5 mL/kg once daily for 6 days from 3 days before the ischemia-reperfusion injury. On one day before the ischemia-reperfusion injury, the right kidney was removed under isoflurane anesthesia. The ischemia-reperfusion injury was induced by clamping the left renal vein and artery for 45 minutes and then following reperfusion under isoflurane anesthesia, whereas such a surgery treatment was not performed for the Sham Group. 4 Weeks after the ischemia-reperfusion injury, the rats were exsanguinated under isoflurane anesthesia, kidney was collected and fixed in 10% neutral buffered formalin, and then paraffin-embedded section was prepared. Staining and image analysis were performed by a similar method as described above."}, "[4]": {"tested_on": "hypoxia-inducible factor (HIF)", "settings": "as described in Patent Document 1 (WO 2011/007856); cited from earlier work"}}, "data": [{"smiles": "O=C(O)CNC(=O)c1c(O)cc(CCc2ccccc2)n2ncnc12", "note": "[Compound A, 2-({[7-hydroxy-5-(2-phenylethyl)-[1,2,4]triazolo[1,5-a]pyridin-8-yl]carbonyl}amino)acetic acid]", "values": [{"measurement": "prolyl hydroxylase (PHD) inhibitory action", "setting": "[1]", "result": "has a prolyl hydroxylase (PHD) inhibitory action"}, {"measurement": "tubulointerstitial fibrosis, sirius red-stained area ratio", "setting": "[2]", "result": "suppressive effect on tubulointerstitial fibrosis"}, {"measurement": "tubulointerstitial fibrosis, sirius red-stained area ratio", "setting": "[3]", "result": "suppressive effect on tubulointerstitial fibrosis"}, {"measurement": "stabilization of hypoxia-inducible factor (HIF)", "setting": "[4]", "result": "stabilizes the hypoxia-inducible factor (HIF)"}]}]}
